According to the NIST ThermoML archive (doi:10.1016/j.fluid.2013.09.056):
± gives the expanded uncertainty stated by the source.

Conditions: Liquid, Closed cell (Static) method

Row | Structure (SMILES) | vapor or sublimation pressure (283.15 K) [kPa] | vapor or sublimation pressure (293.15 K) [kPa] | vapor or sublimation pressure (303.15 K) [kPa] | vapor or sublimation pressure (313.15 K) [kPa] | vapor or sublimation pressure (323.15 K) [kPa]
1 | FCC(F)(F)F [1,1,1,2-tetrafluoroethane] | 414 ± 7 | 571.5 ± 7 | 767 ± 7.1 | 1013 ± 7.2 | 1314.7 ± 7.3
2 | FC(C(F)(F)F)C(F)(F)F [1,1,1,2,3,3,3-heptafluoropropane] | 278.9 ± 7 | 388 ± 7 | 524.5 ± 7 | 699 ± 7.1 | 912.4 ± 7.1
3 | C=C(F)C(F)(F)F [2,3,3,3-tetrafluoro-1-propene] | 436.5 ± 7 | 591 ± 7.1 | 780.5 ± 7.1 | 1015.6 ± 7.2 | 1300.7 ± 7.2
4 | CC(F)(F)F [1,1,1-trifluoroethane] | 838.6 ± 7.1 | 1107.9 ± 7.2 | 1435.2 ± 7.3 | 1834 ± 7.5 | 2309.7 ± 7.8
